{
  "source": "patent US20150158931A1",
  "about": "“CYSTEINE PROTEASE CAPTURING AGENTS” (Stichting Het Nederlands Kanker Instituut, priority 2012, published 2015)",
  "key": {"[1]": {"test_system": "SENPs (GST-SENP1, SENP6, SENP7)", "experiment": "Labeling of SENPs with SUMO-PRG peptides (SDS-PAGE, fluorescence)", "type": "binding, human", "conditions": "for selective capturing / binding of SENPs: SENPs 1 μM, peptides 50 μM, 1 hour at RT; for binding to SENPs denatured prior to addition of the peptides: hydrolases denatured (1x LB, 5 min boiling) before peptide", "experimental": "The following experiment was performed to confirm that propargyl modified SUMO peptide (fragments) in accordance with the invention are selective capturing agent for the corresponding SENPs. The following SUMO peptides and SENPs were used in the Experiment. • SUMO peptides: • SUMO1=Cy5-PEG4-YQEQTG-PRG • SUMO2,3=Cy5-PEG4-FQQQTG-PRG • SENPs: • GST-SENP1 (43 kDa) • SENP6 (33.1 kDa) • SENP7 (37.2 kDa)\nThe SENPs (1 μM final concentration) were incubated with the SUMO-PRG peptides (50 μM final concentrations) for 1 hour at RT in buffer (20 mM Tris, 100 mM NaCl, 1 mM DTT, pH 7.5). Samples were denatured using 1× LB and boiled for 5 min. As a control, the SENPs were denatured (1×LB and 5 min. boiling) prior to treatment with the SUMO-PRG peptides. Samples were resolved by SDS-PAGE (12% polyacryl amide, MES buffer) and proteins were visualized by fluorescence (λex,em=625,680 nm) and CBB staining."}, "DUBs in cell lysates": {"test_system": "DUBs in cell lysates", "experiment": "Labeling of active DUBs in cell lysates at endogenous levels with fluorescent probe", "type": "binding", "conditions": "fluorescence"}, "[2]": {"test_system": "GFP-DUB fusions (catalytic cysteine to serine mutants)", "experiment": "Labeling of overexpressed GFP-DUB fusions in cell lysates", "type": "binding", "conditions": "transfected cells, lysate", "experimental": "For overexpression of GFP-tagged DUBs in cells, wild type USP14, Otub1, Otub2, Otud1 and POH1 were subcloned from pDEST-cDNA constructs (Addgene) into the eGFP-C1 vector system (Clontech) at XhoI/EcoRI restriction sites. Mutagenesis of catalytic Cysteines was performed by standard protocols (Stratagene) using the following primers (sites of mutagenesis underlined): USP14-C114S forward-CTTGGTAACACTTCTTACATGAATGCC, reverse-GGCATTCATGTAAGAAGTGTTACCAAG; Otub1-C9/S forward-CCTGACGGCAACTCTTTCTATCGGGC, reverse-GC CCGATAGAAAGAGTTGCCGTCAGG; Otub2-C51S forward-GG GATGGGAACTCCTTCTACAGGGCC, reverse-GGCCCTGTAGAAGGAGTTCCCATCCC. […] Reactions were stopped by the addition sample loading buffer supplemented with (β-mercaptoethanol, followed by boiling for 10 min. Samples were resolved on 4-12% MOPS NU-PAGE Gels (Invitrogen) and probe reactivity was assessed by TAMRA fluorescence scanning as described above. Gels were then transferred onto Nitrocellulose membranes and immunoblotted using anti-GFP serum produced in rabbit and mouse anti-β-actin (Sigma-Aldrich). Immunoblots were visualized using a Licor Odyssey. The following fluorescent secondary antibodies purchased from LICOR were used: anti-mouse-680, anti-rabbit-800."}, "UCH-L3 [3]": {"target": "T1, UCH-L3 (Homo sapiens, UniProt P15374)", "T1 construct": "made in house", "T1 sequence (P15374 1-230)": "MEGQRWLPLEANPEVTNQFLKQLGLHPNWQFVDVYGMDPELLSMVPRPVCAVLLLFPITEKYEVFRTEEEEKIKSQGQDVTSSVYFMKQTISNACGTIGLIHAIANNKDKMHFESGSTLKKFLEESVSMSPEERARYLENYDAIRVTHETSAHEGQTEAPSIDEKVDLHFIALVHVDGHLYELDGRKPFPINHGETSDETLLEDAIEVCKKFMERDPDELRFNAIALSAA", "experiment": "Reaction between Ubiquitin75-propargylamide and UCH-L3 (LC-MS, SDS-PAGE)", "type": "binding", "experimental": "Recombinant UCH-L3 was expressed and purified as described previously (C. N. Larsen, J. S. Price, K. D. Wilkinson, Biochemistry 35, 6735 (1996)).\n(§1) General procedure: DUB was dissolved in PBS with 5 mM dithiothreitol to a concentration of 1 mg/mL."}, "papain": {"target": "T2, papain (Carica papaya, UniProt P00784)", "T2 construct": "papain, a general cysteine protease obtained from Papaya Latex; from tissue; host or cells: papaya latex", "T2 sequence (P00784 134-345)": "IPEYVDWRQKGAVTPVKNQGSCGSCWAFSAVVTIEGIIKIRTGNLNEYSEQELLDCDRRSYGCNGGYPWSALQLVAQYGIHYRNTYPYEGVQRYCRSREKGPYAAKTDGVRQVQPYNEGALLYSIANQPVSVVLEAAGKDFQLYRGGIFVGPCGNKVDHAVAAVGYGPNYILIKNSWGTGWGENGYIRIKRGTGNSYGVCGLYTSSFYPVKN", "experiment": "In vitro labeling reaction of cysteine proteases: papain", "type": "binding", "experimental": "as §1"}, "ubiquitin ligase E1": {"target": "T3, ubiquitin ligase E1 (Homo sapiens, UniProt P22314)", "T3 sequence (P22314 1-1058)": "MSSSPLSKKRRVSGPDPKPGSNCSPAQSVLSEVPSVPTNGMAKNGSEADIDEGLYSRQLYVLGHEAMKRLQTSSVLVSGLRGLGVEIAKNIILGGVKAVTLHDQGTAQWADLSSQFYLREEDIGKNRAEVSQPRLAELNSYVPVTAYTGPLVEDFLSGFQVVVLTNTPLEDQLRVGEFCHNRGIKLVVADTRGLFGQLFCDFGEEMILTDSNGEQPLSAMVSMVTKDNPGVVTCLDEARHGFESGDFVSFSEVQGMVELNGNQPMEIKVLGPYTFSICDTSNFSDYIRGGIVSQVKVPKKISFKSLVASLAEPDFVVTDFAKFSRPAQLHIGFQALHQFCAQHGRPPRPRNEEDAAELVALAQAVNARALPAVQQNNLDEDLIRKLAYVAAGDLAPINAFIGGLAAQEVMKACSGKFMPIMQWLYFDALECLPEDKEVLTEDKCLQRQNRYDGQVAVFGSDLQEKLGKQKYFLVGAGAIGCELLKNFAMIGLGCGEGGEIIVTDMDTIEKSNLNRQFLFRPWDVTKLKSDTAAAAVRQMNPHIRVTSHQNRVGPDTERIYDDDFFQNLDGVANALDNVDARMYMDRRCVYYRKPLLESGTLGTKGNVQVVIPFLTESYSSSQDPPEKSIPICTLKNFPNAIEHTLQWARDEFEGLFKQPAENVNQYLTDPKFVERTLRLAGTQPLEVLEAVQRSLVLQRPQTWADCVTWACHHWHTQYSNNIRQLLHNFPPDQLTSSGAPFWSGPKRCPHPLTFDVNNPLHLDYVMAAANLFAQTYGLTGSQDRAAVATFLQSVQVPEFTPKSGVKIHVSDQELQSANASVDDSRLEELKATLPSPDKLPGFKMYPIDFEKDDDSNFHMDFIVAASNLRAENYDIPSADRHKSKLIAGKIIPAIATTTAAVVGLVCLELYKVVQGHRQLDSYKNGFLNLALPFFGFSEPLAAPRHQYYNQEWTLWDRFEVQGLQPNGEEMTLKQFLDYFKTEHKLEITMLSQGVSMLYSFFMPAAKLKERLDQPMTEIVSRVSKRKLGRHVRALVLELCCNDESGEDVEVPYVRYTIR", "experiment": "In vitro labeling reaction: ubiquitin ligase E1", "type": "binding", "experimental": "as §1"}, "cysteine protease DUBs": {"test_system": "cysteine protease DUBs", "experiment": "Reaction between Ubiquitin75-propargylamide and DUBs, in vitro labeling", "type": "binding", "conditions": "including OTU-domain containing DUBs", "experimental": "as §1"}, "UCH-L3 [4]": {"target": "T1, UCH-L3", "experiment": "Thioradical-mediated cleavage of Ub-Prg-UCH-L3 complex", "conditions": "ethane thiol 50 mM, VA-044 10 mM, three hours", "experimental": "The reaction was incubated for 30 minutes at 37° C. and was buffer exchanged into water by PD-10 column (GE Healthcare) and lyophilized overnight. The resulting white powder was dissolved in PBS (100 μL) and to 90 μL of this solution 10 μL of ethanethiol was added (143 μmole) and VA-044 to a final concentration of 10 mM. The reaction was shaken at 37° C. for three hours prior to LC-MS analysis.\nTo a solution of Ub-prg-UCH-L3 complex in PBS (0.5 mg/mL; 80 μL) various amounts of thiol were added to the final concentrations indicated. Radical initiator VA-044 was added at the concentrations indicated and the reaction was shaken at 37° C. for 3 hours after which the reactions were analysed by non-reducing SDS-PAGE."}, "SENP-1": {"test_system": "SENP-1", "experiment": "In vitro labeling reaction of cysteine proteases: SENP-1", "type": "binding", "experimental": "as §1"}, "UCH-L3 [5]": {"target": "T1, UCH-L3", "experiment": "Acid cleavage of the complex between Ubiquitin75-propargylamide and the DUBs", "conditions": "incubation with various acids", "experimental": "To a solution of Ubiquitin75-propargylamide-UCH-L3 complex in PBS (3 mg/mL; 10 μL) was added a 3-fold concentrated solution of the tested acid. The reactions were incubated overnight and analyzed by SDS-PAGE chromatography and/or mass spectrometry."}},
  "note": "Primed or numbered codes have the meaning given here. PEG4′ = not defined here; PRG = propargyl",
  "data": [
    {"substance": "Cy5-PEG4-FQQQTG-PRG ({Cy5-PEG4′}-FQQQTG-{PRG}) [SUMO2,3, truncated fluorescent C-terminal propargylated SUMO peptide, C-termini of SUMO-2 and SUMO-3]", "values": [
      {"measurement": "selective capturing / binding of SENPs", "setting": "[1]", "result": "selective binding"},
      {"measurement": "binding to SENPs denatured prior to addition of the peptides", "setting": "[1]", "result": "completely abolishes binding"}
    ]},
    {"substance": "Cy5-PEG4-YQEQTG-PRG ({Cy5-PEG4′}-YQEQTG-{PRG}) [SUMO1, truncated fluorescent C-terminal propargylated SUMO peptide, C-terminus of SUMO-1]", "values": [
      {"measurement": "selective capturing / binding of SENPs", "setting": "[1]", "result": "selective binding"},
      {"measurement": "binding to SENPs denatured prior to addition of the peptides", "setting": "[1]", "result": "completely abolishes binding"}
    ]},
    {"substance": "TMR-Ub-Prg: N-terminally tetramethylrhodamine (TMR) labeled analogue of Ub-Prg", "values": [
      {"measurement": "labeling of active DUBs in lysates at endogenous levels", "setting": "DUBs in cell lysates", "result": "clear labeling results"},
      {"measurement": "reaction with DUB mutants, active site cysteine mutated to serine", "setting": "[2]", "result": "failed to react"}
    ]},
    {"substance": "Ubiquitin75-propargylamide [Ub-Prg]", "values": [
      {"measurement": "bond formation with UCH-L3, stable to denaturing LC-MS and denaturing SDS-PAGE", "setting": "UCH-L3 [3]; 1.2 molar equivalents, 37 °C, 30 minutes", "result": "forms a bond with UCH-L3"},
      {"measurement": "reactivity with UCH-L3 after pre-treatment with iodoacetamide", "setting": "UCH-L3 [3]; UCH-L3 pre-treated with general alkylating agent iodoacetamide", "result": "abolished all reactivity"},
      {"measurement": "complex formation with radical scavenger", "setting": "UCH-L3 [3]; presence of excess radical scavenger", "result": "complex formation"},
      {"measurement": "reactivity towards papain", "setting": "papain", "result": "unreactive"},
      {"measurement": "reactivity towards ubiquitin ligase E1", "setting": "ubiquitin ligase E1", "result": "no reactivity"},
      {"measurement": "reaction in vitro with cysteine protease DUBs", "setting": "cysteine protease DUBs", "result": "react in vitro with all cysteine protease DUBs tested"},
      {"measurement": "reaction in vitro with cysteine protease DUBs", "setting": "cysteine protease DUBs; listed as Ubiquitin-propargyl", "result": "reacts with all classes of cysteine deubiquitinating enzymes"},
      {"measurement": "thioradical treatment of purified complex with UCH-L3", "setting": "UCH-L3 [4]", "result": "cleavage was observed"},
      {"measurement": "reaction with DUB mutants, active site cysteine mutated to serine", "setting": "[2]", "result": "abolished binding"},
      {"measurement": "reactivity towards SENP-1", "setting": "SENP-1", "result": "unreactive"},
      {"measurement": "acid lability of complex with UCH-L3", "setting": "UCH-L3 [5]", "result": "cleavage of the complex"}
    ]}
  ]
}
